Assay results as given in article PMC4499427 (Iranian Journal of Pharmaceutical Research : IJPR, 2015).
Values after ≈ are worked out from the molar mass of the structure shown. Where two headings read alike, the source gives them in different places.

What was measured:
[1] = tested on: Mycobacterium bovis BCG (1173P2); assay: microbe, parasite or virus in culture; type: cell-based; settings: for MIC: Mycobacterium tuberculosis variant bovis BCG, BCG
[2] = Cytotoxicity assay, MTT method; type: cell-based; settings: mouse, L929 fibroblast cells, Fibroblast L929 cell line
Description: (§1) The synthesized derivatives were assayed for their toxicity on Fibroblast L929 cell line by MTT [[…]] method. The cells were grown in RPMI1640 medium at 37 °C under 5% CO2 supplemented with 10% heat inactivated fetal bovine serum (FBS), 100 U/mL penicillin and 100 µg/mL streptomycin. Then, the cells were seeded into 96-well plates at a concentration of 6000 cells/well and allowed to incubate for 24 h. The medium was then discarded and different concentrations of test compounds in complete medium were added to each well. […] The produced formazan crystals were dissolved in 100 µL of DMSO. Plates were incubated for 20 min at 37 °C and the optical densities were read at 570 nm with a reference wavelength of 630 nm as background using a spectrophotometer plate reader (Infinite® M200, TECAN). Doxorubicin and cisplatin were used as positive controls and DMSO as the solvent of the test compounds and its final concentration was less than 0.2%. IC50 was calculated by GraphPad Prism 5.04 software. All the tests were performed in triplicates.

[3] = tested on: Fibroblast L929 cell line; assay: Cytotoxicity assay, MTT method; type: cell-based; settings: 48 h
Description: as §1

[4] = 24 h, read-out: Antimycobacterial activity MIC
[5] = 48 h, read-out: Antimycobacterial activity MIC
[6] = Mycobacterium bovis BCG, read at 24 h after Alamar blue
[7] = Mycobacterium bovis BCG, read at 48 h after Alamar blue
[8] = Mycobacterium bovis BCG, reading time not given

| SMILES | MIC [1, 4] [µg/mL] | MIC [1, 5] [µg/mL] | IC50 at 48 h [2] [µg/mL] | melting point | also measured |
| --- | --- | --- | --- | --- | --- |
| C[S+](C)[O-] [DMSO] | – | – | – | – | Antimycobacterial activity MIC ([1]; Mycobacterium bovis BCG, 24 h, negative control DMSO): 6.5/6.5 % v/v; Antimycobacterial activity MIC ([1]; Mycobacterium bovis BCG, 48 h, negative control DMSO): 6.5/6.5 % v/v |
| CC[C@@H](CO)NCCN[C@@H](CC)CO [Ethambutol, reference compound] | 0.75 (≈ 3.67 µM) | 0.75 (≈ 3.67 µM) | – | – | – |
| S=c1[nH]ncn1N=Cc1ccccn1 [IIIa, 4-(pyridin-2-ylmethyleneamino)-1,2,4-triazole-5-thione] | 62.5 (≈ 305 µM) | 125 (≈ 609 µM) | > 100 | – | MIC ([1]; read-out: MIC value): 62.5 µg/mL (≈ 305 µM) |
| S=c1[nH]ncn1N=Cc1cccnc1 [IIIb, 4-(pyridin-3-ylmethyleneamino)-1,2,4-triazole-5-thione] | 125 (≈ 609 µM) | 125 (≈ 609 µM) | > 100 | 157 °C (dec.) | – |
| S=c1[nH]ncn1N=Cc1ccncc1 [IIIc, 4-(pyridin-4-ylmethyleneamino)-1,2,4-triazole-5-thione] | 93.8 (≈ 457 µM) | 125 (≈ 609 µM) | > 100 | 255 to 256 °C | – |
| CC(=O)Nc1ccc(C=Nn2cn[nH]c2=S)cc1 [IIId, 4-(4-acetamidobenzyldeneamino)-1,2,4-triazole-5-thione] | – | – | – | – | Antimycobacterial activity MIC [1, 6]: 125/125 µg/mL; Antimycobacterial activity MIC [1, 7]: 125/125 µg/mL; Cytotoxicity IC50 [3]: >100 µg/mL |
| S=c1[nH]ncn1/N=C/C=C/c1ccccc1 [IIIe, 4-((E)-3-phenylallylideneamino)-1,2,4-triazole-5-thione] | 62.5 (≈ 271 µM) | 62.5 (≈ 271 µM) | 42.6 (≈ 185 µM) | – | MIC ([1]; read-out: MIC value): 62.5 µg/mL (≈ 271 µM) |
| S=c1[nH]nc2n1N=C(c1ccccc1)CC2 [IIa, 6-phenyl-7,8-dihydro-[1,2,4]triazolo[4,3-b]pyridazine-3-thione] | 62.5 (≈ 271 µM) | 62.5 (≈ 271 µM) | > 100 | 253 °C (dec.) | MIC ([1]; read-out: MIC value): 62.5 µg/mL (≈ 271 µM) |
| S=c1[nH]nc2n1N=C(c1ccc(Cl)cc1)CC2 [IIb, 6-(4-chlorophenyl)-7,8-dihydro-[1,2,4]triazolo[4,3-b]pyridazine-3-thione] | > 500 | > 500 | > 100 | 256 °C (dec.) | antimycobacterial activity (in words) ([1]; Mycobacterium bovis BCG): inactive |
| Nn1cnnc1S [Ia, 4-amino-1,2,4-triazole-5-thione] | 62.5 (≈ 538 µM) | 62.5 (≈ 538 µM) | > 100 | – | – |
| Cc1n[nH]c(=S)n1N [Ib] | – | – | – | – | IC50 value [1, 8]: 31.25 µg/mL (≈ 240 µM); MIC value [1, 8]: 31.25 µg/mL (≈ 240 µM); Antimycobacterial activity MIC [1, 6]: 31.25/31.25 µg/mL; Antimycobacterial activity MIC [1, 7]: 31.25/31.25 µg/mL; Cytotoxicity IC50 [3]: >100 µg/mL |
| CCc1n[nH]c(=S)n1N [Ic] | – | – | – | – | Antimycobacterial activity MIC [1, 6]: 62.5/62.5 µg/mL; Antimycobacterial activity MIC [1, 7]: 62.5/62.5 µg/mL; Cytotoxicity IC50 [3]: >100 µg/mL |
| Nn1c(Cc2c[nH]c3ccccc23)n[nH]c1=S [Id, 4-amino-3-(indol-3-ylmethyl)-1,2,4-triazole-5-thione] | 62.5 (≈ 255 µM) | 62.5 (≈ 255 µM) | > 100 | 172 to 175 °C | – |
| Nn1c(C(O)c2ccccc2)n[nH]c1=S (centres unmarked) [Ie, 4-amino-3-(hydroxy(phenyl)methyl)-1,2,4-triazole-5-thione] | 62.5 (≈ 281 µM) | 62.5 (≈ 281 µM) | > 100 | 167 to 170 °C | – |
| Nn1c(Cc2cccs2)n[nH]c1=S [If, 4-amino-3-(thiophen-2-ylmethyl)-1,2,4-triazole-5-thione] | 62.5 (≈ 294 µM) | 62.5 (≈ 294 µM) | > 100 | 154 to 157 °C | – |
